We go through one molecule from patent publication US20250339391A1, “METHODS FOR EFFECTIVE MANAGEMENT OF PAIN” (South Rampart Pharma, Inc., priority 2024, published 2025).

Data set [1] can be described thus: Phase 1 multiple ascending dose (MAD) pharmacokinetics. It counts as in vivo, human. How it is done: A two-part randomized, double-blind, placebo-controlled Phase 1 trial was conducted to assess the safety, tolerability, PK and PD of SRP-001 ascending doses (Quotient Sciences, Miami, FL USA). The study was conducted in accordance with the International Council for Harmonisation of Technical Requirements for Pharmaceuticals for Human Use (ICH), Guideline for GCP: Consolidated Guidance (E6), and applicable regulatory requirements(s) including clinical research guidelines established by the Basic Principles defined in the U.S. 21 CFR Parts 50, 56, and 312 and the principles enunciated in the Declaration of Helsinki (revised version Fortaleza 2013). The clinical protocol and informed consent form were reviewed and approved by an Institutional Review Board (IRB; Advarra IRB, 6100 Merriweather Drive, Suite 600, Columbia, MD 21044; Quotient Protocol No. SRP-101 and Quotient Sciences Study No. QSC205130; Quotient Sciences Miami, 3898 NW 7th Street, Miami, FL 33126.). The study comprises a SAD (Part 1) assessment that includes a food effect assessment that contributes data to inform a subsequent MAD (Part 2) dose-ranging study. Safety measurements were collected throughout the study for all subjects. Blood samples were collected to determine the PK parameters of SRP-001. ClinicalTrials.gov identifier: NCT05484414

The test system of another data set is healthy volunteers. In words: Phase 1 safety and tolerability. It counts as in vivo, human. How it is done:
A randomized, double-blind, placebo-controlled Phase 1 trial (ClinicalTrials.gov identifier: NCT05484414) was conducted to assess the safety, tolerability, food effect, pharmacokinetics (PK), and pharmacodynamics (PD) of single and multiple ascending doses of SRP-001 (Quotient Sciences, Miami FL USA; FIG. 3H and Online Methods). The trial was conducted in accordance with the International Council for Harmonisation of Technical Requirements for Pharmaceuticals for Human Use (ICH), Guideline for GCP: Consolidated Guidance (E6), attained Institutional Review Board approval, and all applicable regulatory requirements for Phase 1, First in Human clinical trials. Safety measurements and plasma samples to determine PK parameters were collected throughout the study for all subjects and reviewed by the Safety Review Committee. PK stopping criteria were established to assure that systemic exposure to SRP-001 was less than or equal to the systemic exposure achieved at the NOAEL doses in the 28-day repeat-dose toxicology studies in the rat and dog. The trial's Safety Advisory Committee has approved the publication of the Phase 1 results.
A two-part randomized, double-blind, placebo-controlled Phase 1 trial was conducted to assess the safety, tolerability, PK and PD of SRP-001 ascending doses (Quotient Sciences, Miami, FL USA). […]
Safety—Holter (continuous ECG) Monitoring: NHVs also underwent continuous ECG Holter monitoring from at least 1 h prior to dosing until 24 h post-dose, and resulting measurements were monitored consistently. […] Where any scheduled rest times were missed, where there was less than a 10-min rest period, or where the final 5 min of a rest period was interrupted (for example, by subject movement or loss of leads), a protocol deviation was recorded, and the Holter provider was informed. Loss of leads or interruption of the recording outside of the scheduled rest times was not considered a protocol deviation but was recorded in the source. […]

The subject of data set [2] is conscious telemetered beagle dogs. The data set is described as follows: Cardiovascular effect in conscious telemetered beagle dogs (GLP). It counts as in vivo, dog. How it is done: The effects of SRP-001 on hERG current amplitude at physiologic temperatures were evaluated over a nominal concentration range of 0.1 μM to 100M. A vehicle group (10% DMSO) was included in the study for comparison, and dofetilide (10 nM) was used as a reference substance. The vehicle and positive controls indicated appropriate sensitivity of the test systems. […] Next, the potential acute effects of oral SRP-001 on cardiovascular function in conscious telemetered beagle dogs was done using a Latin Square design; 4 male naïve beagle dogs each received vehicle (10% DMSO: 10% labrasol: 80% PEG400) and three doses (30, 90, and 150 mg/kg) of SRP-001 nanosuspension by oral gavage. […] A single dose was administered on the day of dosing, and a washout period of seven days was allowed between doses. One-min means of hemodynamic parameters, as well as ECG parameters and body temperature, were measured for a period of at least 24 h. One-min tracings of the ECGs were obtained at 15 min prior to dosing and at 30 min, 1, 2, 4, 8, 12, and 24 h post-dose. Qualitative evaluation of the ECGs was done by a board-certified veterinary cardiologist.

In the next data set the test system is Male rats. In words: Rat micronucleus in vivo study. How it is done: The induction of numerical aberrations was within the 95% control limit of the historical negative control data. […] Approximately 48 h after the second dose administration, peripheral blood was collected for flow cytometric analysis of micronuclei. There was no significant increase in the incidence of micronuclei in the test article-dosed animals compared to the concurrent vehicle control. The vehicle control value was compatible with the historical range of % micronucleated reticulocytes (MnRETs). There was a statistically significant increase in MnRETs in the positive control compared to the concurrent vehicle control. […] The vehicle control was 10% Labrasol, 10% DMSO, and 80% PEG400. The positive control for the Comet assay, ethyl methanesulfonate (EMS), was orally administered at 200 mg/kg/dose for two consecutive days at a dose volume of 10 mL/kg/dose. […] Animals were euthanized 3-4 h after the last dose administration. The liver and glandular stomach were collected and processed for comet evaluation.

In a further data set the test system is Sprague-Dawley rats. The data set is described as follows: CFA inflammatory pain / von Frey with electronic detection (eVF). Type of data set: in vivo, rat. As to conditions: behavioral assays.

The structures appear in SMILES notation. Entries after “also recorded” stand apart in the source; their conditions may differ.

A word on the half-life: it is the time in which the quantity being followed falls by half. Turning to `CCN(CC)C(=O)c1ccccc1S(=O)(=O)NCC(=O)Nc1ccc(O)cc1` [SRP-001, N,N-diethyl-2-[[2-(4-hydroxyanilino)-2-oxo-ethyl]sulfamoyl]benzamide], the “T1/2, geometric mean” value in data set [1] (MAD 500 mg, Day 1) amounted to 3.06 h; in data set [1] (MAD 1,000 mg, Day 1), 4.05 h; in data set [1] (MAD 1,000 mg, Day 5), 9.77 h. In data set [1] (MAD cohorts), the “T1/2, arithmetic mean” value is reported as 5.57 h. The “PK parameters on Day 5 versus Day 1” value in data set [1] (Phase 1 MAD cohort) is recorded as “demonstrated a decrease”. Also, the half-life in data set [1] (human, blood, summary aspect, read-out: half-life in said subject) was in the range of 4.9 to 9.8 h. Further, in the data set on healthy volunteers (Phase 1 MAD cohort), the emesis result was “no emesis was reported”. Moreover, the “safety assessments (vital signs, ECG, laboratory tests)” value in the data set on healthy volunteers (SAD and MAD cohorts) is “revealed no abnormalities”. For the same molecule, in the data set on healthy volunteers (oral nanosuspension, SAD and MAD cohorts, 42 subjects on SRP-001), the “tolerability / serious adverse events” value is reported as “no serious adverse events (SAEs) reported”. Moreover, the “effects on blood pressure, heart rate, ECG morphology, ECG measurements, body temperature” value in data set [2] (30, 90 and 150 mg/kg oral) is listed as “no effects on pulmonary function or cardio-telemetry; also recorded: did not induce any biologically relevant effects”. In addition, the QTc result in data set [2] (telemetered safety pharmacology study in dogs) was “no prolonged QTc”. In the data set with Male rats (500, 1,000 and 2,000 mg/kg/d oral, two days), the “incidence of micronuclei / clastogenicity” value is given as “negative (non-clastogenic)”. In addition, the “% RETs” value in the data set on Male rats (treatment groups) is “Statistically significant decreases in % RETs”. For the same molecule, in the data set with Sprague-Dawley rats, the “locomotor activity or motor incoordination” value is recorded as “no overt alterations”.
